Results reported in patent EP0745595A1, “3-(3-Aryloxyphenyl)-1-(substituted methyl)-s-triazine-2,4,6-oxo or thiotrione herbicidal agents” (American Cyanamid Company, priority 1995, dated 1996).

Experiments:
Assay type in all cases: in vivo
SAGITTARIA PYGMAEA = assay: Preemergence evaluation in the presence of transplanted rice under flooded paddy conditions (Example 43), SAGPY (Arrowhead (Pygmaea)); design: key: visual rating on a 0-9 scale, compared with control; conditions: applied three days after sowing, 25 to 30 days after treatment
Protocol: (§1) Results of herbicide evaluation are expressed on a rating scale (0-9). The scale is based upon a visual observation of plant stand, vigor, malformation, size, chlorosis and overall plant appearance as compared with a control.
(§2) In this example, Deluvian paddy soil (Toyokawa paddy soil) is placed in plastic pots, 100cm^2 x 9 cm in depth. Water is added to the level of the soil surface in the pot and the mixture is paddled 3 cm in depth.
(§3) Pots are then variously sown with monocotyledenous weed seeds and tubers at 0-2 cm in soil depth, as well as transplanted rice plants at the 2.5 leaf stage. The rice plants are transplanted at about 3 cm soil depth. Water is then added to all of the pots to 3 cm deep and kept at a depth of 3 cm for the duration of the test. Test compounds are applied in the manner described in Example 42 three days after transplanting the rice plants and sowing the weed seeds and tubers. The pots are then placed on greenhouse benches and cared for in the conventional manner. Tests are examined at 25 to 30 days after treatment and rated according to the rating system provided in Example 40. The compounds evaluated are reported by compound number given in Example 40.

SCIRPUS JUNCOIDES = assay: Preemergence evaluation in the presence of transplanted rice under flooded paddy conditions (Example 43), SCPJU (Bulrush, Japanese); design: key: visual rating on a 0-9 scale, compared with control; conditions: applied three days after sowing, 25 to 30 days after treatment
Protocol: as §1, §2, §3

CYPERUS DIFFORMIS = assay: Preemergence evaluation in the presence of transplanted rice under flooded paddy conditions (Example 43), CYPDI (Flatsedge, smallflower); design: key: visual rating on a 0-9 scale, compared with control; conditions: applied three days after sowing, 25 to 30 days after treatment
Protocol: as §1, §2, §3

CYPERUS SEROTINUS = assay: Preemergence evaluation in the presence of transplanted rice under flooded paddy conditions (Example 43), CYPSE (Flatsedge, perennial); design: key: 0-9 visual rating scale vs. untreated control; conditions: applied three days after sowing, 25 to 30 days after treatment
Protocol: as §1, §2, §3

[…] = Preemergence evaluation in the presence of transplanted rice under flooded paddy conditions (Example 43), MOOVA (Monochoria); conditions: applied three days after sowing, 25 to 30 days after treatment
Protocol: as §1, §2, §3

[1] = tested on: ORYZA SATIVA, L. CV. KOSHIHIKARI; assay: Post-transplant rice evaluation under flooded paddy conditions (Example 43), ORYSAK (Rice, Koshihikari); design: key: visual rating on a 0-9 scale, compared with control; conditions: applied three days after transplanting rice, 25 to 30 days after treatment
Protocol: as §1, §2, §3

ECHINOCHLOA CRUS-GALLI = assay: Preemergence evaluation in the presence of transplanted rice under flooded paddy conditions (Example 43), ECHCG (Barnyard Grass); design: key: visual rating on a 0-9 scale, compared with control; conditions: applied three days after sowing, 25 to 30 days after treatment
Protocol: as §1, §2, §3

Row | SMILES | Herbicidal effect rating, SAGPY (SAGITTARIA PYGMAEA; 0.025 kg/ha) | Herbicidal effect rating, SAGPY (SAGITTARIA PYGMAEA; 0.050 kg/ha) | Herbicidal effect rating, SAGPY (SAGITTARIA PYGMAEA; 0.100 kg/ha) | Herbicidal effect rating, SAGPY (SAGITTARIA PYGMAEA; 0.250 kg/ha) | Herbicidal effect rating, SCPJU (SCIRPUS JUNCOIDES; 0.025 kg/ha) | Herbicidal effect rating, SCPJU (SCIRPUS JUNCOIDES; 0.050 kg/ha) | Herbicidal effect rating, SCPJU (SCIRPUS JUNCOIDES; 0.100 kg/ha) | Herbicidal effect rating, SCPJU (SCIRPUS JUNCOIDES; 0.250 kg/ha) | Herbicidal effect rating, CYPDI (CYPERUS DIFFORMIS; 0.025 kg/ha) | Herbicidal effect rating, CYPDI (CYPERUS DIFFORMIS; 0.050 kg/ha) | Herbicidal effect rating, CYPDI (CYPERUS DIFFORMIS; 0.100 kg/ha) | Herbicidal effect rating, CYPDI (CYPERUS DIFFORMIS; 0.250 kg/ha) | Herbicidal effect rating, CYPSE (CYPERUS SEROTINUS; 0.025 kg/ha) | Herbicidal effect rating, CYPSE (CYPERUS SEROTINUS; 0.050 kg/ha) | Herbicidal effect rating, CYPSE (CYPERUS SEROTINUS; 0.100 kg/ha) | Herbicidal effect rating, CYPSE (CYPERUS SEROTINUS; 0.250 kg/ha) | Herbicidal effect rating, MOOVA ([…]; 0.025 kg/ha) | Herbicidal effect rating, MOOVA ([…]; 0.050 kg/ha) | Herbicidal effect rating, MOOVA ([…]; 0.100 kg/ha) | Herbicidal effect rating, MOOVA ([…]; 0.250 kg/ha) | also measured
1 | COC(=O)Cn1c(=O)n(C)c(=O)n(-c2cc(Oc3c(F)cc(C(F)(F)F)cc3Cl)ccc2Br)c1=O [Compound 2, Methyl 3-{2-bromo-5-[(2-chloro-α,α,α,6-tetrafluoro-p-tolyl)oxy]phenyl}tetrahydro-5-methyl-2,4,6-trioxo-s-triazine-1(2H)-acetate] | 3.0 | 7.0 | 9.0 | 9.0 | 8.0 | 9.0 | 9.0 | 9.0 | 9.0 | 9.0 | 9.0 | 9.0 | 4.0 | 7.0 | 9.0 | 9.0 | 9.0 | 9.0 | 9.0 | 9.0 | Herbicidal effect rating, ORYSAK ([1]; 0.025 kg/ha): 1.0; Herbicidal effect rating, ORYSAK ([1]; 0.050 kg/ha): 3.0; Herbicidal effect rating, ORYSAK ([1]; 0.100 kg/ha): 5.0; Herbicidal effect rating, ORYSAK ([1]; 0.250 kg/ha): 9.0; Herbicidal effect rating, ECHCG (ECHINOCHLOA CRUS-GALLI; 0.025 kg/ha): 9.0; Herbicidal effect rating, ECHCG (ECHINOCHLOA CRUS-GALLI; 0.050 kg/ha): 9.0; Herbicidal effect rating, ECHCG (ECHINOCHLOA CRUS-GALLI; 0.100 kg/ha): 9.0; Herbicidal effect rating, ECHCG (ECHINOCHLOA CRUS-GALLI; 0.250 kg/ha): 9.0
2 | COC(=O)Cn1c(=O)n(C)c(=O)n(-c2cc(Oc3ccc(C(F)(F)F)cc3Cl)ccc2[N+](=O)[O-])c1=O [Compound 3, Methyl 3-{5-[(2-chloro-α,α,α-trifluoro-p-tolyl)oxy]-2-nitrophenyl}tetrahydro-5-methyl-2,4,6-trioxo-s-triazine-1(2H)-acetate] | 0.0 | 0.0 | 1.0 | 3.0 | 5.0 | 7.0 | 9.0 | 9.0 | 5.0 | 8.0 | 9.0 | 9.0 | 0.0 | 5.0 | 8.0 | 9.0 | 3.0 | 5.0 | 7.0 | 9.0 | Herbicidal effect rating, ORYSAK ([1]; 0.025 kg/ha): 0.0; Herbicidal effect rating, ORYSAK ([1]; 0.050 kg/ha): 1.0; Herbicidal effect rating, ORYSAK ([1]; 0.100 kg/ha): 5.0; Herbicidal effect rating, ORYSAK ([1]; 0.250 kg/ha): 8.0; Herbicidal effect rating, ECHCG (ECHINOCHLOA CRUS-GALLI; 0.025 kg/ha): 8.0; Herbicidal effect rating, ECHCG (ECHINOCHLOA CRUS-GALLI; 0.050 kg/ha): 9.0; Herbicidal effect rating, ECHCG (ECHINOCHLOA CRUS-GALLI; 0.100 kg/ha): 9.0; Herbicidal effect rating, ECHCG (ECHINOCHLOA CRUS-GALLI; 0.250 kg/ha): 9.0
